This is an account of results in ChEMBL document CHEMBL3638846, “Galactoside inhibitors of galectins” (2014).

One assay addresses Galectin-1 (Homo sapiens, UniProt P09382). As to the kind of experiment: (§1) Fluorescence Polarization-Based Assay: Compounds 7, 15-19, and 22 were evaluated for their efficiency in inhibiting galectin-1 and galectin-3 in a known fluorescence polarization-based assay (Sörme et al., 2003a, 2004). All compounds were potent inhibitors of galectin-1 and galectin-3 with dissociation constant in the low μM or nM range. This evidences that a properly structured cyclohexane can mimic the subsite D-binding saccharide moiety, e.g. N-acetylglucosamine in the disaccharide N-acetyllactosamine. A general note: Fluorescence polarisation rises when a labelled molecule tumbles more slowly, as on binding a larger partner.

In a further assay the target is Galectin-3 (Homo sapiens, UniProt P17931). The description is as §1.
Galectin-3, sequence (P17931 whole entry): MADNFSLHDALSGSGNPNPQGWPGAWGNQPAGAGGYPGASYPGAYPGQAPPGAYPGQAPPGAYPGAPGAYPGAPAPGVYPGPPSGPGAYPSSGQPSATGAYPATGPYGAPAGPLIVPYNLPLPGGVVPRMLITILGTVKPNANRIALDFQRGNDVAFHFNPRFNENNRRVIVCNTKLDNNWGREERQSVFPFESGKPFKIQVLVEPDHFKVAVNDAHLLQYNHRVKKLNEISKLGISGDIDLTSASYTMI

Galectin-1, sequence (P09382 whole entry): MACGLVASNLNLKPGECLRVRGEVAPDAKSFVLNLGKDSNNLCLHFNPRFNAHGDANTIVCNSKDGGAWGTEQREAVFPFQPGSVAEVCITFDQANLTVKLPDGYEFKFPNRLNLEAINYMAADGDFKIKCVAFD

On to `CO[C@@H]1OC(CO)[C@@H](O[C@@H]2OC(CO)[C@H](O)[C@H](O)C2O)[C@H](O)C1NC(C)=O` (some centres not stated), for which the results for the Kd on Galectin-1 and at Galectin-3 were 65 µM and 59 µM, respectively.

What is called Kd is the free concentration of one partner at which half of the binding sites on the other are occupied at equilibrium, for simple one-to-one binding.
